Values after ≈ are worked out from the molar mass of the structure shown. A value given as a limit tells only on which side of the number the result lay.

Common to all, as to test: ≥ marks a high value that may be exact or a test limit, other limits are often not marked, values filed in µg/mL are converted to µM
Experiment [1] concerns Bacillus subtilis.
Experiment [2] deals with Staphylococcus aureus.
Experiment [3] concerns Candida albicans F7-39/IDE99.
Experiment [4] deals with Escherichia coli.
In experiment [5] the test system is Pseudomonas aeruginosa.
Experiment [6] deals with Escherichia coli W160-37.
Experiment [7] deals with Staphylococcus aureus ATCC 25923.
Experiment [8] deals with Escherichia coli ATCC 25922.
Experiment [9] deals with Candida albicans ATCC 2002.
Experiment [10] has as its system Pseudomonas aeruginosa CMCCB 10104.
Experiment [11] deals with Staphylococcus aureus NCTC 12493.
Experiment [12] deals with Pseudomonas aeruginosa ATCC 27853.
Experiment [13] deals with Candida albicans NCYC 1467.
Experiment [14] relates to Escherichia coli NCTC 10418.
Experiment [15] deals with Staphylococcus aureus NCTC 10788.
In experiment [16] the test system is Bacillus subtilis 168.
Experiment [17] concerns Escherichia coli B.
The test system of experiment [18] is Staphylococcus aureus ATCC 6538P.
In experiment [19] the test system is Escherichia coli JM109.
Experiment [20] concerns Staphylococcus epidermidis ATCC 12228.
Experiment [21] has as its system Staphylococcus aureus ATCC 29213.
Experiment [22] concerns Salmonella enterica subsp. enterica serovar Typhimurium C77-31.
Experiment [23] deals with Enterococcus faecalis ATCC 29212.
For experiment [24], the system named is Salmonella enterica subsp. enterica serovar Pullorum C79-13.

For orientation: MIC means the least concentration at which growth counts as inhibited. A high value points to a less susceptible organism. In the case of `CC[C@H](C)[C@H](NC(=O)[C@H](Cc1cnc[nH]1)NC(=O)[C@H](CCCCN)NC(=O)[C@H](CC(C)C)NC(=O)[C@H](CC(C)C)NC(=O)[C@H](CO)NC(=O)[C@H](Cc1c[nH]c2ccccc12)NC(=O)[C@H](Cc1c[nH]c2ccccc12)NC(=O)[C@H](CCCCN)NC(=O)CN)C(=O)N[C@@H](CC(C)C)C(=O)N[C@@H](CCCCN)C(N)=O` [GKWWSLLKHILK], the MIC is 0.6 µM (≈ 0.905 µg/mL) in experiment [1]; 4.7 µM (≈ 7.09 µg/mL) in experiment [2]; 5.3 µM (≈ 7.99 µg/mL) in experiment [3]; 1.6 µM (≈ 2.41 µg/mL) in experiment [4]; 50 µM (≈ 75.4 µg/mL) in experiment [5].

As for `CC[C@H](C)[C@H](N)C(=O)N[C@H](C(=O)N[C@@H](CO)C(=O)N[C@H](C(=O)N[C@H](C(=O)NCC(=O)N[C@@H](CCCCN)C(=O)N[C@@H](CC(C)C)C(=O)N[C@H](C(=O)N[C@@H](CCCCN)C(=O)N[C@@H](Cc1c[nH]c2ccccc12)C(=O)N[C@H](C(=O)N[C@H](C(=O)N[C@@H](CC(=O)O)C(=O)N[C@H](C(=O)N[C@H](C(=O)O)C(C)C)[C@@H](C)O)[C@@H](C)CC)[C@@H](C)CC)C(C)C)[C@@H](C)CC)[C@@H](C)O)[C@@H](C)CC` [IISTIGKLVKWIIDTV], the values for the MIC in [2] and in experiment [6] were 18.8 µM (≈ 33.8 µg/mL) and 8 µM (≈ 14.4 µg/mL), respectively.

Regarding `CC[C@H](C)[C@H](N)C(=O)N[C@@H](CC(C)C)C(=O)N1CCC[C@H]1C(=O)N[C@@H](Cc1ccccc1)C(=O)N[C@H](C(=O)N[C@@H](C)C(=O)NCC(=O)N[C@H](C(=O)N[C@@H](C)C(=O)N[C@@H](C)C(=O)N[C@@H](CCSC)C(=O)N[C@@H](CCC(=O)O)C(=O)N[C@@H](CCSC)C(=O)N[C@@H](CCC(=O)O)C(=O)N[C@@H](Cc1cnc[nH]1)C(=O)N[C@H](C(=O)N[C@@H](Cc1ccc(O)cc1)C(=O)N[C@H]1CSSC[C@@H](C(=O)O)NC(=O)[C@H](CCCCN)NC(=O)[C@H](CCCCN)NC(=O)[C@H](CO)NC(=O)[C@H](C)NC(=O)[C@H](C)NC1=O)C(C)C)C(C)C)C(C)C` [ILPFVAGVAAMEMEHVYCAASKKC], the MIC is 1.91 µM (≈ 4.9 µg/mL) in experiment [7], 3.81 µM (≈ 9.79 µg/mL) in [8], 3.81 µM (≈ 9.79 µg/mL) in [9] and 3.81 µM (≈ 9.79 µg/mL) in [10].

For the compound `CC[C@H](C)[C@H](NC(=O)CNC(=O)[C@@H](NC(=O)[C@H](C)NC(=O)[C@@H](NC(=O)[C@H](CCCCN)NC(=O)[C@@H]1CCCN1C(=O)[C@@H](NC(=O)[C@H](CC(C)C)NC(=O)[C@H](CO)NC(=O)[C@H](CC(C)C)NC(=O)[C@@H](N)Cc1ccccc1)[C@@H](C)CC)[C@@H](C)CC)[C@@H](C)O)C(=O)N[C@@H](C)C(=O)N[C@@H](C)C(=O)N[C@@H](CC(C)C)C(=O)N[C@@H](C)C(=O)N[C@@H](CCCCN)C(=O)N[C@@H](Cc1cnc[nH]1)C(=O)N[C@@H](CC(C)C)C(N)=O` [FLSLIPKIATGIAALAKHL], the MIC in [11] came to 2 µM (≈ 3.95 µg/mL); in [12], 32 µM (≈ 63.2 µg/mL); in experiment [13] it was 2 µM (≈ 3.95 µg/mL); in [14] it was 8 µM (≈ 15.8 µg/mL); in [15], 2 µM (≈ 3.95 µg/mL).

Consider `CC[C@H](C)[C@H](NC(=O)[C@H](Cc1ccccc1)NC(=O)[C@@H](N)CCCN=C(N)N)C(=O)N[C@@H](Cc1ccc(O)cc1)C(=O)N[C@@H](CCSC)C(=O)N[C@@H](CCCCN)C(=O)NCC(=O)N[C@@H](Cc1ccccc1)C(=O)NCC(=O)N[C@@H](CCCCN)C(=O)N1CCC[C@H]1C(=O)N[C@@H](CCCN=C(N)N)C(=O)N[C@@H](Cc1ccccc1)C(=O)NCC(=O)N[C@@H](CCCCN)C(=O)N[C@@H](CCCN=C(N)N)C(=O)O` [RFIYMKGFGKPRFGKR], for which the MIC is 12.6 µM (≈ 25 µg/mL) in experiment [7], 50.3 µM (≈ 100 µg/mL) in experiment [8], 25.1 µM (≈ 50 µg/mL) in experiment [9] and 12.6 µM (≈ 25 µg/mL) in experiment [10].

In the case of `CC[C@H](C)[C@H](NC(=O)[C@H](CC(C)C)NC(=O)[C@H](CCC(N)=O)NC(=O)[C@@H](NC(=O)[C@H](C)NC(=O)CNC(=O)[C@H](CCCCN)NC(=O)[C@H](CC(C)C)NC(=O)[C@H](CC(C)C)NC(=O)[C@@H](NC(=O)[C@H](Cc1ccccc1)NC(=O)[C@@H](NC(=O)CN)C(C)C)[C@@H](C)O)[C@@H](C)O)C(=O)NCC(=O)N[C@@H](CCCCN)C(=O)N[C@H](C(=O)N[C@@H](CC(C)C)C(=O)NCC(=O)N[C@@H](CCCCN)C(=O)N[C@@H](CCC(=O)O)C(=O)N[C@@H](CC(C)C)C(=O)NCC(=O)N[C@@H](CCCCN)C(=O)N[C@H](C(=O)NCC(=O)N[C@@H](CC(C)C)C(=O)N[C@@H](CCC(=O)O)C(=O)N[C@@H](CC(C)C)C(=O)N[C@@H](CCSC)C(=O)N[C@@H](C)C(=O)N[C@H]1CSSC[C@@H](C(=O)O)NC(=O)[C@H](CCC(N)=O)NC(=O)[C@H](CC(N)=O)NC(=O)[C@H]([C@@H](C)O)NC(=O)[C@H]([C@@H](C)CC)NC(=O)[C@H](CCCCN)NC1=O)[C@@H](C)O)[C@@H](C)O` [GVFTLLKGATQLIGKTLGKELGKTGLELMACKITNQC], the MIC in experiment [7] stood at 2.04 µM (≈ 7.9 µg/mL); in experiment [8], 2.04 µM (≈ 7.9 µg/mL); in [9], 4.07 µM (≈ 15.8 µg/mL); in experiment [10], 2.04 µM (≈ 7.9 µg/mL).

As for `CC[C@H](C)[C@H](NC(=O)[C@H](Cc1cnc[nH]1)NC(=O)[C@H](CCCCN)NC(=O)[C@H](CC(C)C)NC(=O)[C@H](CC(C)C)NC(=O)[C@H](CO)NC(=O)[C@H](CC(C)C)NC(=O)[C@H](Cc1c[nH]c2ccccc12)NC(=O)[C@H](CCCCN)NC(=O)CN)C(=O)N[C@@H](CC(C)C)C(=O)N[C@@H](CCCCN)C(N)=O` [GKWLSLLKHILK], the MIC in [16] is 0.9 µM (≈ 1.29 µg/mL); in experiment [2], 5.5 µM (≈ 7.89 µg/mL); in experiment [3], 8.7 µM (≈ 12.5 µg/mL); in [17], 1.8 µM (≈ 2.58 µg/mL); in [5], 31.7 µM (≈ 45.5 µg/mL).

As to `CC[C@H](C)[C@H](NC(=O)[C@H](C)NC(=O)[C@H](CC(C)C)NC(=O)[C@H](CS)NC(=O)[C@@H](N)Cc1cnc[nH]1)C(=O)NCC(=O)N[C@@H](CCCN=C(N)N)C(=O)N[C@@H](CCCN=C(N)N)C(N)=O` [HCLAIGRR], the MIC is over 69.2 µM in experiment [2], 9.73 µM in experiment [18] and 25.9 µM in experiment [19].

In [19], `CC[C@H](C)[C@H](N)C(=O)N[C@@H](CC(C)C)C(=O)N1CCC[C@H]1C(=O)N[C@@H](Cc1c[nH]c2ccccc12)C(=O)N[C@@H](CCCCN)C(=O)N[C@@H](Cc1c[nH]c2ccccc12)C(=O)N1CCC[C@H]1C(=O)N[C@@H](Cc1ccccc1)C(=O)N[C@@H](Cc1ccccc1)C(=O)N1CCC[C@H]1C(=O)N[C@@H](Cc1c[nH]c2ccccc12)C(=O)N[C@@H](CCCN=C(N)N)C(=O)N[C@@H](CCCN=C(N)N)C(N)=O` [ILPWKWPFFPWRR] registered an MIC of 2 µM (≈ 3.66 µg/mL).

Consider `NCCCC[C@H](NC(=O)CNC(=O)[C@H](CC(N)=O)NC(=O)[C@H](CCC(=O)O)NC(=O)[C@H](Cc1c[nH]c2ccccc12)NC(=O)[C@H](CCCCN)NC(=O)[C@H](Cc1c[nH]c2ccccc12)NC(=O)[C@H](CCCCN)NC(=O)[C@@H](N)Cc1c[nH]c2ccccc12)C(=O)N[C@@H](Cc1c[nH]c2ccccc12)C(=O)N[C@@H](CCCCN)C(=O)N[C@@H](Cc1c[nH]c2ccccc12)C(=O)N[C@@H](CCC(N)=O)C(=O)N[C@@H](Cc1c[nH]c2ccccc12)C(=O)O` [WKWKWENGKWKWQW], for which the MIC was 32 µM (≈ 66.4 µg/mL) in [8]; over 128 µM in experiment [20]; over 128 µM in experiment [21]; at least 64 µM in experiment [22]; over 128 µM in [23]; 16 µM (≈ 33.2 µg/mL) in experiment [24].

The record behind these values is DBAASP.
